Assay results published in US20240024273A1, “TOPICAL ADMINISTRATION OF 2-(DIETHYLAMINO)ETHYL 2-(4-ISOBUTYLPHENYL)PROPRIONATE FOR TREATMENT OF DISEASES” (TECHFIELDS PHARMA CO., LTD., priority 2020, published 2024).

How the values were obtained:
[1] = system: osteoarthritis of the knee; test: Second Phase 2 study: WOMAC stiffness subscale score; type: in vivo, human
Text: For subjects with bilateral knee pain, both knees will be treated, but the most symptomatic knee (ie, the most painful knee as measured by the Western Ontario and McMaster University Osteoarthritis Index [WOMAC® 3.1] pain subscale score at Screening) will be designated as the target knee for efficacy analyses. For subjects with unilateral knee pain, only the symptomatic (target) knee will be treated.
The VAS version of the WOMAC will be used for the Primary and Secondary Efficacy Endpoints. Efficacy endpoints will be assessed at Screening and Baseline (Day 1) and at the Week 2, Week 4, Week 8, and Week 12/EOS visits.
(§1) 4.9.2. Secondary Efficacy Endpoints: • 1. Change from Baseline in the WOMAC (VAS) pain subscale score for the target knee at 2, 8, and 12 weeks of treatment; • 2. Change from Baseline in the WOMAC (VAS) stiffness subscale scores for the target knee and WOMAC (VAS) functional ability subscale scores at 2, 4, 8, and 12 weeks of treatment; • 3. Change from Baseline in the overall WOMAC (VAS) score at 2, 4, 8, and 12 weeks of treatment; • 4. Subject's global assessment of disease status of the target knee at 2, 4, 8, and 12 weeks of treatment; • 5. Subject's global assessment of response to therapy of the target knee at 2, 4, 8, and 12 weeks of treatment; • 6. Amount of rescue medication (acetaminophen) consumed per day for target knee pain.
The Secondary Efficacy Endpoints, change from Baseline in the WOMAC subscale scores for pain, stiffness, and functional ability, and overall WOMAC score at 2, 4, 8, and 12 weeks of treatment, will be analyzed using the same methods as for the Primary Efficacy Endpoint.

[2] = system: osteoarthritis of the knee; test: Second Phase 2 study: Subject's Global Assessment of Disease Status (SGADS); type: in vivo, human
Text: as §1

[3] = Baseline, oral, 3 × 400 mg (n = 20), first 130 subjects
[4] = Week 12, oral, 3 × 400 mg (n = 20), first 130 subjects
[5] = all subjects, Oral Ibuprofen 3 × 400 mg, n = 48, Week 12
[6] = all subjects, Oral Ibuprofen 3 × 400 mg, n = 48 vs. Placebo n = 48
[7] = oral 3×400 mg, first 130 subjects

CC(C)Cc1ccc(C(C)C(=O)O)cc1 (centres unmarked) [Ibuprofen, 2-(4-isobutylphenyl)propionic acid, reference compound]
WOMAC Stiffness Subscale Scores, Baseline (LS Mean) [1, 3]: 56.4 mm | WOMAC Stiffness Subscale Scores, % of improvement from Placebo [1, 4]: −10.3% | WOMAC Stiffness Subscale Scores, Changes from Baseline (LS Mean) [1, 4]: −20.6 mm | WOMAC Stiffness Subscale Scores, Different from placebo (LS Mean) [1, 4]: −6.6 mm | WOMAC Stiffness Subscale Scores, Week 12 (LS Mean) [1, 4]: 35.8 mm | WOMAC Stiffness Subscale Scores, % of improvement from Placebo [1, 5]: −6.9% | WOMAC Stiffness Subscale Scores, % of improvement from baseline [1, 5]: −39.3% | WOMAC Stiffness Subscale Scores, Changes from Baseline (LS Mean) [1, 5]: −20.3 mm | WOMAC Stiffness Subscale Scores, Week 12 (LS Mean) [1, 5]: 31.3 mm | WOMAC Stiffness, difference vs. Placebo [1, 6]: −3.8 mm | WOMAC stiffness, difference from placebo [1, 7]: −6.7 mm | Subject’s Global Assessment of Disease Status Scores, Baseline (LS Mean) [2, 3]: 75.2 mm | Subject’s Global Assessment of Disease Status Scores, % of improvement from baseline [2, 4]: −38.4% | Subject’s Global Assessment of Disease Status Scores, % of improvement from placebo [2, 4]: −2.0% | Subject’s Global Assessment of Disease Status Scores, Changes from Baseline (LS Mean) [2, 4]: −28.9 mm | Subject’s Global Assessment of Disease Status Scores, Different from placebo (LS Mean) [2, 4]: −4.4 mm | Subject’s Global Assessment of Disease Status Scores, Week 12 (LS Mean) [2, 4]: 46.3 mm | Subject's Global Assessment of Disease Status Scores, % of improvement from Placebo [2, 5]: −0.7% | Subject's Global Assessment of Disease Status Scores, % of improvement from baseline [2, 5]: −46.6% | Subject's Global Assessment of Disease Status Scores, Changes from Baseline (LS Mean) [2, 5]: −33.3 mm | Subject's Global Assessment of Disease Status Scores, Week 12 (LS Mean) [2, 5]: 38.1 mm | SGADS, difference vs. Placebo [2, 6]: −2.9 mm | SGADS, difference from placebo [2, 7]: −4.2 mm
